Values quoted from earlier work in article PMC12444550, “Design, Synthesis, and Trypanosomicidal Evaluation of Eugenol-Based Azole Hybrids: Discovery of an In Vitro Active and Selective Compound” (ACS Omega, 2025).

Test system: T. cruzi epimastigotes
Design: method as in Brancaglion and coauthors
Settings: ref Brancaglion and coauthors; read-out: in vitro IC50 against epimastigotes; cited from earlier work

Structure (SMILES): CCCc1cc(OC)c2oc(=O)c(C(=O)c3ccc([N+](=O)[O-])cc3)cc2c1 [nitrobenzoyl derivative, 8-methoxy-3-(4-nitrobenzoyl)-6-propyl-2H-cromen-2-one]
- IC50: 28 µM
